Laboratory results as given in patent publication US8802597B2, “Herbicidal pyrimidines” (E I du Pont de Nemours and Company, priority 2003, dated 2014).

Tests used:
Test in all cases: Test I mixtures of compound 9 with metsulfuron-methyl and chlorsulfuron-metsulfuron-methyl (5:1)
Type in all cases: in vivo
[1] = tested on: wheat (TRZAW; Triticum aestivum); details: Metsulfuron-Methyl series, applied alone
Excerpt: (§1) This test evaluated the effect of mixtures of compound 9 with metsulfuron-methyl and with a 5:1 by weight combination of chlorsulfuron and metsulfuron-methyl on several plant species. Seeds of test plants consisting of wheat (TRZAW; Triticum aestivum), wild buckwheat, (POLCO; Polygonum convolvulus), redroot pigweed (AMARE; Amaranthus retroflexus), wild mustard (SINAR; Sinapis arvensis), catchweed bedstraw (GALAP; Galium aparine), Russian thistle (SASKR; Salsola kali), common chickweed (STEME; Stellaria media), kochia (KCHSC; Kochia scoparia), and lambsquarters (CHEAL; Chenopodium album) were planted into a blend of loam soil and sand. Plants were grown in a greenhouse using supplemental lighting to maintain a photoperiod of about 14 hours; daytime and nighttime temperatures were about 23° C. and 16° C., respectively. Balanced fertilizer was applied through the watering system. The plants were grown for 10 to 23 days so that at time of treatment the plants ranged from 2- to 8-leaf stage. Treatments consisted of Compound 9, metsulfuron-methyl, and chlorsulfuron-metsulfuron-methyl (5:1) alone and in combination. The treatments were formulated in a non-phytotoxic solvent mixture which included a surfactant and applied as a foliage spray using a volume of 280-458 L/ha. Each treatment was replicated three times. […] Treated plants and controls were maintained in the greenhouse and watered as needed with care to not wet the foliage for the first 24 hours after treatment. The effects on the plants approximately 17 days after treatment were visually compared to untreated controls. Plant response ratings were calculated as the means of the three replicates, based on a scale of 0 to 100 where 0 is no effect and 100 is complete control. Colby's Equation was used to determine the herbicidal effects expected from the mixtures.

[2] = tested on: catchweed bedstraw (GALAP; Galium aparine); details: applied alone
Excerpt: as §1

[3] = tested on: kochia (KCHSC; Kochia scoparia); details: applied alone
Excerpt: as §1

[4] = tested on: wild mustard (SINAR; Sinapis arvensis); details: applied alone
Excerpt: as §1

[5] = tested on: redroot pigweed (AMARE; Amaranthus retroflexus); details: applied alone
Excerpt: as §1

[6] = tested on: wild buckwheat (POLCO; Polygonum convolvulus); details: applied alone
Excerpt: as §1

[7] = tested on: Russian thistle (SASKR; Salsola kali); details: applied alone
Excerpt: as §1

[8] = tested on: lambsquarters (CHEAL; Chenopodium album); details: applied alone
Excerpt: as §1

[9] = tested on: common chickweed (STEME; Stellaria media); details: applied alone
Excerpt: as §1

COC(=O)c1ccccc1S(=O)(=O)NC(=O)Nc1nc(C)nc(OC)n1 [Metsulfuron-Methyl]
0: TRZAW Obsd. (observed effect) ([1]; 4 g a.i./ha) | TRZAW Obsd. (observed effect) ([1]; 8 g a.i./ha) | GALAP Obsd. (observed effect) ([2]; 4 g a.i./ha) | GALAP Obsd. (observed effect) ([2]; 8 g a.i./ha) | KCHSC Obsd. (observed effect) ([3]; 4 g a.i./ha) | KCHSC Obsd. (observed effect) ([3]; 8 g a.i./ha) | SINAR Obsd. (observed effect) ([4]; 4 g a.i./ha) | SINAR Obsd. (observed effect) ([4]; 8 g a.i./ha) | AMARE Obsd. (observed effect) ([5]; 4 g a.i./ha) | AMARE Obsd. (observed effect) ([5]; 8 g a.i./ha) | POLCO Obsd. (observed effect) ([6]; 4 g a.i./ha) | POLCO Obsd. (observed effect) ([6]; 8 g a.i./ha) | SASKR Obsd. (observed effect) ([7]; 4 g a.i./ha) | SASKR Obsd. (observed effect) ([7]; 8 g a.i./ha) | CHEAL Obsd. (observed effect) ([8]; 4 g a.i./ha) | CHEAL Obsd. (observed effect) ([8]; 8 g a.i./ha) | STEME Obsd. (observed effect) ([9]; 4 g a.i./ha) | STEME Obsd. (observed effect) ([9]; 8 g a.i./ha)
